# Experimental data: patent US20230391824A1, “RATIONALE, DESIGN, SYNTHESIS AND VALIDATION OF A SMALL MOLECULE ANTICANCER AGENT” (priority 2021, published 2023)
# Experiments:
# LIN28B protein = target: T1, LIN28B protein (Homo sapiens, UniProt Q6ZN17); test: Western blotting of Lin28B protein in cancer cell models; format: cell-based; conditions: YP-MEL, BT-37, NT-2 cells; at the tested dosages
# T1 construct: in a panel of endogenously LIN28 expressing cancer cell models; endogenous in cells; host or cells: YP-MEL, BT-12, BT-37, NT-2 (NTERA)
# T1 sequence (Q6ZN17 1-250): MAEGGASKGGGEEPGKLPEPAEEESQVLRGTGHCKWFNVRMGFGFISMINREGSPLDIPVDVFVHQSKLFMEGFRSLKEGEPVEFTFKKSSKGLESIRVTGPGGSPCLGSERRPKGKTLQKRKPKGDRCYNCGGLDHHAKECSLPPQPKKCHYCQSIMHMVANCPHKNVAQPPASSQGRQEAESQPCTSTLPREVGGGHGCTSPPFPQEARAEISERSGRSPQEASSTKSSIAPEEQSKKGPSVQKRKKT
# Method: FIG. 5: Compound of formula (I) mixture, containing the two isomers (P1+P2) causes significant reduction in Lin28A protein from 5 μM onwards, in a panel of endogenously LIN28 expressing cancer cell models. […] LIN28A and LIN28B expression profile in pediatric CNS cancer cell lines, 96-hr post-treatment with Compound of formula (I). SDS-PAGE on 10% polyacrylamide gel of total cell lysates from untreated cells harvested at 80-90% confluency. Samples loaded with volumes for 20 μg protein. LIN28A and LIN28B proteins were detected using the anti-LIN28A antibody (#8706; Cell Signaling Technology) and anti-LIN28B antibody (#11965; Cell Signalling Technology) at 1:2000 dilutions. T47D: adult breast cancer (LIN28A expressing); YPMEL: malignant melanoma derived from Neurocutaneous Melanosis (NCM) (Lin28A and Lin28B expressing); BT-12: pediatric atypical-teratoid rhabdoid tumor (AT/RT). […]
# The proteins were extracted from the same samples as the RNA using the RIPA lysis buffer. […] The proteins were detected using the anti-Lin28A antibody (#8706; Cell Signaling Technology), anti-Lin28B antibody (#11965, Cell Signaling Technology) the anti-beta-actin antibody at respectively 1:2000, 1:2000 and 1:5000 dilutions.
# YP-MEL NCM tumor = YP-MEL NCM tumor xenograft in SCID mice; format: in vivo; conditions: female SCID mice, 4 mg/kg I.P, every 2 days
# Method: FIG. 13A&B: Female SCID YP-MEL NCM tumor bearing mice treated with 4 mg/kg Compound of formula (I) (P1 version) intraperitoneally (I.P). […] (B) Tumor areas were measured with a Vernier caliper (prior to each treatment cycle). Animals were euthanized when the control (0.1% DMSO:PBS) treated mice reached the defined endpoint of 225 mm^2. Data representative of at least 5 independent experiments.
# All animal procedures were carried out in accordance with the guidelines of the Canadian Council on Animal Care and the NIH guidelines on the care and use of laboratory animals. All protocols were reviewed and approved by the Animal Care Committee of the University of Calgary (Protocol approval number: AC21-0147). Six- to eight-week-old female or male CB17 severe combined immunodeficiency (SCID) mice (Charles River Laboratories, Saint-Constant, QC, Canada) were subcutaneously injected in the right flank with 3×10^6 YP-MEL or NT-2 cells suspended in 0.1 mL sterile PBS. After tumor injection, animals with detectable tumor growth of at least 50 mm^2 were randomized into groups. […] Animals and respective cages were monitored for food and bedding supplies daily; doses were injected every 2 days and tumor areas were measured with a Vernier caliper (prior to each treatment cycle). […]
# [1] = test system: NT-2 testicular cancer cells; test: Flow cytometric (propidium iodide) cell cycle analysis of NT-2 cells; format: cell-based; conditions: first 24h
# Method: FIG. 9: NT-2, testicular cancer cells, were incubated with Compound of formula (I) isomers for 24h and subjected to Flow Cytometric analysis to determine the alterations in cancer cell cycle. […] Therefore, only the P1 isomer of Compound of formula (I) was investigated further to determine its in vitro and in vivo efficacy.
# The method for Propidium Iodide (PI) based cell cycle analysis was performed as per the instructions given by the manufacturer (AB139418; Abcam). Briefly NT-2 cells treated with Compound of formula (I) versions were harvested in single cell suspensions with each experimental condition containing two million cells, fixed in 66% Ethanol overnight at 4° C. The ethanol was removed thoroughly by centrifugation, followed by rehydration of cells in PBS with a repeat of centrifugation. Cells were stained in PI (1%) and RNase solution (1%) in PBS for 30 minutes at 37° C. in the dark. The cells were analyzed immediately on the Flow Cytometer.
# Lin28A protein = target: T2, Lin28A protein (Homo sapiens, UniProt Q9H9Z2); test: Western blotting of Lin28A protein in cancer cell models; format: cell-based
# T2 construct: in a panel of endogenously LIN28 expressing cancer cell models; endogenous in cells; host or cells: T47D, YP-MEL, BT-12, BT-37, NT-2 (NTERA)
# T2 sequence (Q9H9Z2 1-209): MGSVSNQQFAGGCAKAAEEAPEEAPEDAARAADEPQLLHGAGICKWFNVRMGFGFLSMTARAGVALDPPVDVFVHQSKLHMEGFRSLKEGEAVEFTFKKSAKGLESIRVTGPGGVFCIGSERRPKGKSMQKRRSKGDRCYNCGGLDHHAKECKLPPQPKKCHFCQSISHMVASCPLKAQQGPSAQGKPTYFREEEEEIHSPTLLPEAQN
# Method: FIG. 5: Compound of formula (I) mixture, containing the two isomers (P1+P2) causes significant reduction in Lin28A protein from 5 μM onwards, in a panel of endogenously LIN28 expressing cancer cell models. […] LIN28A and LIN28B expression profile in pediatric CNS cancer cell lines, 96-hr post-treatment with Compound of formula (I). SDS-PAGE on 10% polyacrylamide gel of total cell lysates from untreated cells harvested at 80-90% confluency. Samples loaded with volumes for 20 μg protein. LIN28A and LIN28B proteins were detected using the anti-LIN28A antibody (#8706; Cell Signaling Technology) and anti-LIN28B antibody (#11965; Cell Signalling Technology) at 1:2000 dilutions. T47D: adult breast cancer (LIN28A expressing); YPMEL: malignant melanoma derived from Neurocutaneous Melanosis (NCM) (Lin28A and Lin28B expressing); BT-12: pediatric atypical-teratoid rhabdoid tumor (AT/RT).
# FIG. 7A-C: To determine the differences in the biological activity of the two isomers (P1+P2) of Compound of formula (I), we tested the effects of purified and separated P1 and P2 isomers on the protein expression of Lin28A and Lin28B. (A) YP-MEL (NCM). (B) BT-37 (AT/RT). (C) NT-2 (NTERA) (Testicular cancer).
# The proteins were extracted from the same samples as the RNA using the RIPA lysis buffer. The protein extracts (20 μg) were run on 10% SDS-PAGE and transferred on a nitrocellulose blotting membrane 0.22 μm (GE Healthcare) using the Trans-Blot® SD semi-dry transfer devise (Biorad). The proteins were detected using the anti-Lin28A antibody (#8706; Cell Signaling Technology), anti-Lin28B antibody (#11965, Cell Signaling Technology) the anti-beta-actin antibody at respectively 1:2000, 1:2000 and 1:5000 dilutions.
structure (smiles),measurement,setting,value
CC[C@H](C)[C@H](NC(=O)[C@H](Cc1ncc[nH]1)NC(=O)c1cccc(C(N)=O)c1)C(=O)Nc1ccc(O)c(-c2nc3ccccc3s2)c1 [Compound P1],Lin28B expression,LIN28B protein,remained unaltered
same,growth of NCM tumors,YP-MEL NCM tumor,significantly reduced the growth
same,share of total cell count that had undergone cell death,[1],approximately 10%
same,selectivity relative to the crude mixture containing P1+P2,"Lin28A protein; Lin28A inhibition, FIG. 7 versus FIG. 5",5 times
same,concentration from which Lin28A is selectively inhibited,"Lin28A protein; YP-MEL, BT-37, NT-2 cells",≥ 1 µM
